The nature of data set [1]: Stability against temperature stress (dehydration, form conversion). In kind it is physicochemical.
For data set [2], the system named is bacteria. The following applies: at clinically relevant doses; reported; cited from earlier work.
A short description of data set [3]: Stability against moisture / hygroscopicity.
A short description of data set [4]: Thermogravimetric analysis. In kind it is physicochemical. The following applies: up to a temperature of about 130° C.; 10 K/min; crystalline Form 1 (FIG. 4). How it is done:
Thermogravimetric analysis (TGA) was performed on a Mettler TGA/DSC 1 instrument. The sample (6.30 mg) was heated in a 100 microL aluminum pan closed with an aluminum lid. The lid was automatically pierced at the beginning of the measurement. The sample was heated from 25 to 200° C. at a rate of 10 K/min. Nitrogen (purge rate 50 mL/min) was used as purge gas.

Data set [5] can be described thus: Differential scanning calorimetry. In kind it is physicochemical. The following applies: 10 K/min; crystalline Form 1 (FIG. 3). How it is done: Differential scanning calorimetry was performed on a Mettler Toledo Polymer DSC R instrument. The sample (1.27 mg) was heated in a 40 microL aluminium pan with pierced aluminium lid from 25 to 160° C. at a rate of 10 K/min. Nitrogen (purge rate 50 mL/min) was used as purge gas.
For orientation: In DSC, transitions show as peaks or steps in heat flow.

For data set [6] the following is noted: stated in WO 2011/042560 A1 (page 17); cited from earlier work.
The conditions of data set [7]: stated in WO 2011/042560 A1; cited from earlier work.

SMILES strings stand for the structures. Structures can show the parent of a compound that is named as a salt.

Turning to `NC(=O)[C@@H]1CC[C@@H]2CN1C(=O)N2OS(=O)(=O)O` [avibactam free acid, [(2S,5R)-2-carbamoyl-7-oxo-1,6-diazabicylco[3.2.1]octan-6-yl] hydrogen sulfate], the “behaviour under temperature stress” value in data set [1] is “very stable against temperature stress”. Besides, in data set [2], the “antibacterial activity of its own” value is recorded as “no antibacterial activity at clinically relevant doses”. The hygroscopicity entry in data set [3] is “low hygroscopicity”. In addition, the stability against moisture result in data set [3] (increased relative humidity levels) was “very stable against moisture”. The “weight loss, thermogravimetric analysis” value in data set [4] was “about 0.3 weight %”. In addition, in data set [5], the “temperature up to which no thermal event is seen in the differential scanning calorimetry curve” value was “at least 130 °C”.

`NC(=O)C1CCC2CN1C(=O)N2OS(=O)(=O)[O-].O.[Na+]` (stereo not shown) [form A]: in data set [1], the “behaviour under temperature stress” value was “dehydrates to the anhydrous form B”.

`NC(=O)[C@@H]1CC[C@@H]2CN1C(=O)N2OS(=O)(=O)[O-].O.O.[Na+]` [form E]: the “temperature above which the form dehydrates (to monohydrate form A)” value in data set [1] (temperature stress) was “above 60 °C”. In addition, the “tendency to lose water and hydrolyze” value in data set [6] is “tends to lose water and to hydrolyze”. Besides, the “relative humidity above which the form is particularly stable” value in data set [7] is reported as above 70%.

(Values after US11124513B2, “Avibactam free acid” (Sandoz AG, priority 2016, dated 2021).)
